Article PMC7689490, “Designed CXCR4 mimic acts as a soluble chemokine receptor that blocks atherogenic inflammation by agonist-specific targeting” (Nature Communications, 2020)
Values joined by “and” are separate entries in the source; they are usually repeats but may differ in a detail not shown here. Identical values can stand only once. “Also recorded” adds a separate entry of the source.

Tests used:
human CXCR4 [1] = experiment: MIF-triggered CXCR4-specific signaling in yeast (lacZ read-out); type: cell-based; conditions: co-incubation with MIF
Procedure: (§1) Briefly, yeast transformants stably expressing human CXCR4 were grown overnight at 30 °C in yeast nitrogen base selective medium (Formedium, UK). Cells were diluted to an OD600 of 0.2 and grown to an OD600 of 0.3–0.6. […] OD600 was measured and activation of CXCR4 signaling quantified by β-galactosidase activity using a commercial BetaGlo Kit (Promega, Mannheim, Germany).

human CXCR4 [2] = experiment: CXCL12-triggered CXCR4-specific signaling in yeast (lacZ read-out); type: cell-based
Procedure: as §1

[3] = tested on: primary mouse spleen B lymphocytes; experiment: MIF-triggered Transwell chemotaxis of primary splenic B cells;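 on all read-outs here: migration tracked over 4 h at 37 °C, read out as transmigrated cells counted by flow cytometry with absolute counting beads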; type: cell-based; conditions: for MIF-elicited chemotaxis: Suppl. Fig. 15b, individual replicates, n = 4
Procedure: Briefly, splenic B cells were isolated by negative depletion using a Pan B Cell Isolation Kit (Miltenyi Biotec, Bergisch Gladbach, Germany). […] Chemotaxis was followed for 4 h at 37 °C in a humidified atmosphere of 5% CO2. Migrated cells were counted by flow cytometry using CountBright™ Absolute Counting Beads (Molecular Probes-Invitrogen).

pAMPK/AMPK in HCM = experiment: MIF/CD74-triggered AMPK signaling in human cardiomyocytes (HCM); type: cell-based
Procedure: HCMs (2 × 10^5 per well) were plated in 12-well plates and maintained for 2 days with cultured medium containing 5% FCS. Before stimulation, medium was replaced by fresh myocyte basal medium containing 0.05% FCS and HCMs rested for 16 h. Surface CD74 expression on HCMs was verified by flow cytometry (FITC-conjugated anti-human CD74 (1:100 dilution), FITC-IgG2 (isotype control) (BD Pharmingen), 1 h/4 °C in the dark, BD FACSVerse™ flow cytometer, FlowJo software). […] After treatment, cells were lysed and subjected to SDS-PAGE (10%)/Western blotting using NuPAGE® lithium dodecyl sulfate (LDS)/dithiothreitol (DTT) lysis buffer-containing PhosSTOP^TM reagent (Roche Applied Science). […] Anti-rabbit horse-radish peroxidase (HRP)-conjugated antibody (1:10000, GE Healthcare, Freiburg, Germany) was used for development and signals quantitated by chemiluminescence using an Odyssey® Fc imager. Unprocessed scans of the Western blots are supplied in the Source Data file.

[4] = tested on: primary human monocyte-derived macrophages; experiment: MIF-mediated DiI-LDL uptake / foam cell formation; type: cell-based; conditions: 80 nM MIF
Procedure: After washing with imaging solution (MEM without phenol red containing 30 mM HEPES, 0.5 g/L NaHCO3, pH 7.4, and 0.2% BSA), cells were exposed to 50 µg mL^−1 1,1′-dioctadecyl-3,3,3′3′-tetramethylindocarbocyanine-labeled oxidized LDL (DiI-oxLDL) or DiI-labeled native LDL (DiI-LDL) for 30 min at 4 °C, followed by incubation at 37 °C for 20 min. Cells were washed with ice-cold imaging solution (pH 3.5), fixed, and counter-stained with Hoechst 33258.

[5] = tested on: carotid arteries of Apoe−/− mice; experiment: Leukocyte adhesion in ex vivo mounted atherosclerotic carotid arteries under flow (MPM); set-up: species or system mouse
Procedure: Monocyte adhesion experiments in atherosclerotic carotid arteries under physiological flow conditions ex vivo have been established[14],[75] and were performed by a slight modification of this procedure. Briefly, seven-week-old Apoe^−/− mice were fed a Western-type HFD (0.2% cholesterol) for 12 weeks. […] On day 3, arteries were prepared and mounted into an arteriograph chamber. […] Mouse leukocytes isolated from the bone marrow of msR4M-L1- or vehicle-treated atherogenic Apoe^−/− mice were stained with fluorescent Green CMFDA or Red CMPTX (Thermo Fisher Scientific). […] The red- and green-stained cell pools were mixed at a 1:1 ratio and 3 × 10^6 cells in 6 mL perfused into the artery of msR4M-L1- or vehicle-treated mice, respectively. Arteries were scanned by MPM using a multispectral TCS SP8 DIVE instrument with filter-free 4TUNE NDD detection module (Leica) and the number of adherent and transmigrated leukocytes determined by scanning multiphoton excitation. Vessel structure (and plaques) were visualized by second harmonic generation (SHG). Image acquisition, visualization, and processing was performed using the LAS X SP8 software package with LAS X 3D visualization and analysis (Leica) and LAS X HyVolution 2 packages from Leica/SVI Huygens, (Laapersveld, NL).

Apoe−/− mice on HFD = experiment: In vivo model of atherosclerosis (lesions, lesional macrophages, tolerability)
Procedure: Seven-eight-week-old female Apoe^−/− mice were randomly divided into two groups of 11–12 mice each and both groups put on a Western-type HFD (0.21% cholesterol) for 4.5 weeks. Mice develop early-to-intermediate atherosclerotic lesions in this model. […] At the end of the experiment, mice were sacrificed, blood collected by cardiac puncture and saved for blood cell and lipid measurements and mice transcardially perfused with saline. Hearts, proximal aortas and carotid arteries were prepared and fixed for plaque morphometry and lesion analysis.
Quantification of plaques and vessel morphometry (ORO and H&E staining). Cut heart tissues containing aortic root were embedded in Tissue Tek optimum cutting temperature (OCT) substance (Sakura Finetek, Osaka, Japan) and frozen at −80 °C. Eight-µm sections were prepared for ORO staining and plaque immune cell analysis. The accumulation of macrophages in aortic root lesions was determined by an anti-MAC-2 antibody (1:100 dilution) followed by Cy5-conjugated secondary antibody. Nuclei were visualized with DAPI. The aortic arch was cut, fixed in 4% paraformaldehyde (PFA) and embedded in paraffin. Four-µm sections containing the three branches (brachiocephalic, left common carotid, and left subclavian artery) were prepared and stained with hematoxylin/eosin (H&E) for vessel morphometry. Images were captured with a Leica DMi8 microscope and quantified using ImageJ.

in vivo = conditions: C57BL/6, mouse, ip, 50 ug per mouse
Procedure: Plasma was immediately separated by centrifugation at 3000 rpm for 10 min at 4 °C, and placed on ice protected from light. Plasma aliquots were diluted (1:1) with SDS-PAGE sample buffer, boiled, analyzed in 10–20% Tricine SDS-PAGE gels, and red fluorescent bands imaged by Odyssey® Fc imager.

## CC[C@H](C)[C@H](NC(=O)[C@H](Cc1ccc(O)cc1)NC(=O)[C@H](CCCNC(=N)N)NC(=O)[C@H](CC(=O)O)NC(=O)CCCCCCCCCCCNC(=O)CCCCCNC(=O)[C@H](CCCCN)NC(=O)[C@H](CS)NC(=O)[C@H](CC(C)C)NC(=O)[C@H](Cc1ccccc1)NC(=O)[C@H](CC(N)=O)NC(=O)CNC(=O)[C@H](Cc1ccccc1)NC(=O)[C@H](Cc1ccc(O)cc1)NC(=O)[C@H](Cc1c[nH]c2ccccc12)NC(=O)[C@H](CC(N)=O)NC(=O)[C@H](C)NC(=O)[C@@H](NC(=O)[C@H](C)NC(=O)[C@@H](N)CC(=O)O)C(C)C)C(=O)N[C@@H](CS)C(=O)N[C@@H](CC(=O)O)C(=O)N[C@@H](CCCNC(=N)N)C(=O)N[C@@H](Cc1ccccc1)C(=O)N[C@@H](Cc1ccc(O)cc1)C(=O)N1CCC[C@H]1C(=O)N[C@@H](CC(N)=O)C(=O)N[C@@H](CC(=O)O)C(=O)N[C@@H](CC(C)C)C(=O)N[C@@H](Cc1c[nH]c2ccccc12)C(=O)N[C@H](C(N)=O)C(C)C [msR4M-L1, CXCR4-ECL1[97–110]-6-Ahx-12-Ado-ECL2[182–196]]
Human CXCR4 [1]
  effect on MIF-triggered CXCR4 reporter signal: blocked the β-galactosidase reporter signal in a concentration-dependent manner
Human CXCR4 [2]
  effect on CXCL12/CXCR4-elicited signaling: remained unaffected
[3]; 16 nM MIF, peptide at 5-fold molar excess (80 nM)
  inhibition of MIF-mediated B-cell chemotaxis: fully blocked
[3]; log(msR4M-L1) (M) = -6.495
  MIF-elicited chemotaxis: 1.49 and 1 and 1.46 and 1.55
[3]; log(msR4M-L1) (M) = -6.796
  MIF-elicited chemotaxis: 1.24 and 1.03 and 1.49 and 1.3
[3]; log(msR4M-L1) (M) = -7.097
  MIF-elicited chemotaxis: 1.2 (3×) and 1.12
[3]; log(msR4M-L1) (M) = -7.495
  MIF-elicited chemotaxis: 1.18 and 1.24 and 2 and 1.77
[3]; log(msR4M-L1) (M) = -7.796
  MIF-elicited chemotaxis: 1.67 (2×) and 2.32 and 1.89
[3]; log(msR4M-L1) (M) = -10
  MIF-elicited chemotaxis: 2.52 and 2.18 and 3 and 2.83
pAMPK/AMPK in HCM
  effect on MIF-upregulated pAMPK levels: not attenuated
[4]
  inhibition of MIF-mediated DiI-LDL uptake: dose-dependently inhibited; also recorded: slightly better than that of ISO-1, but lower than that of NIH/IIID.9
[5]; msR4M-L1 100 µg once daily for 3 days before vessel harvest, 5–6 carotid arteries per group
  number of luminally adhering leukocytes: significantly reduced
[5]; msR4M-L1 group, individual values, n = 6
  Fig. 5l, leukocyte adhesion in ex vivo mounted carotid arteries: 12 and 45 and 36 and 16 and 32
Apoe−/− mice on HFD; 50 µg i.p. for 4.5 weeks
  toxicity or side effects: No toxicity or side effects were noted
Apoe−/− mice on HFD; Apoe−/− mice, HFD 4.5 weeks, 50 µg (2.5 mg kg^−1) i.p. three times per week, HE, 7 vs 7 mice
  atherosclerotic lesion size in aortic arch: significantly decreased
Apoe−/− mice on HFD; Fig. 6g, msR4M-L1-treated animals, per animal, n = 11
  Lesion area (x10to3 µm2): 184.774 x10to3 µm2 and 104.198 x10to3 µm2 and 151.257 x10to3 µm2 and 126.04 x10to3 µm2 and 45.213 x10to3 µm2 and 130.67 x10to3 µm2 and 89.727 x10to3 µm2 and 63.265 x10to3 µm2 and 177.705 x10to3 µm2 and 117.601 x10to3 µm2 and 70.989 x10to3 µm2
Apoe−/− mice on HFD; as E123, 11 vs 12 mice
  number of lesional macrophages, MAC-2 staining: significantly decreased
Apoe−/− mice on HFD; as E123, ORO, 12 vs 12 mice
  atherosclerotic lesion size in aortic root: significantly decreased
In vivo
  level at time molar: 20 to 50 nM
